Reference: ChEMBL document CHEMBL4507277

Legend:
Details in all cases: Compound concentration 1000.0 nM
[1] = molecular target: Phosphatidylinositol 4,5-bisphosphate 3-kinase catalytic subunit alpha isoform (Homo sapiens) (UniProt P42336)
[2] = molecular target: Peripheral plasma membrane protein CASK (Homo sapiens) (UniProt O14936)
[3] = molecular target: Serine/threonine-protein kinase OSR1 (Homo sapiens) (UniProt O95747)
[4] = molecular target: Casein kinase I isoform gamma-2 (Homo sapiens) (UniProt P78368)
[5] = molecular target: SRSF protein kinase 1 (Homo sapiens) (UniProt Q96SB4)
[6] = test system: Phosphatidylinositol 4,5-bisphosphate 3-kinase catalytic subunit alpha isoform (Homo sapiens), P42336 [H1047L]
[7] = molecular target: Ephrin type-B receptor 1 (Homo sapiens) (UniProt P54762)
[8] = molecular target: Mitogen-activated protein kinase kinase kinase 14 (Homo sapiens) (UniProt Q99558)
[9] = molecular target: Transient receptor potential cation channel subfamily M member 6 (Homo sapiens) (UniProt Q9BX84)
[10] = molecular target: Mitogen-activated protein kinase kinase kinase kinase 1 (Homo sapiens) (UniProt Q92918)
[11] = molecular target: BMP-2-inducible protein kinase (Homo sapiens) (UniProt Q9NSY1)
[12] = test system: Epidermal growth factor receptor (Homo sapiens), P00533 [UNDEFINED MUTATION]
[13] = molecular target: MAP/microtubule affinity-regulating kinase 4 (Homo sapiens) (UniProt Q96L34)
[14] = molecular target: Serine/threonine-protein kinase STK11 (Homo sapiens) (UniProt Q15831)
[15] = molecular target: Rhodopsin kinase GRK1 (Homo sapiens) (UniProt Q15835)
[16] = molecular target: Testis-specific serine/threonine-protein kinase 3 (Homo sapiens) (UniProt Q96PN8)
[17] = molecular target: Focal adhesion kinase 1 (Homo sapiens) (UniProt Q05397)
[18] = test system: Tyrosine-protein kinase ABL1 (Homo sapiens), P00519 [E255K]
[19] = molecular target: Testis-specific serine/threonine-protein kinase 1 (Homo sapiens) (UniProt Q9BXA7)
[20] = molecular target: Activin receptor type-2B (Homo sapiens) (UniProt Q13705)
[21] = test system: Mast/stem cell growth factor receptor Kit (Homo sapiens), P10721 [A829P]
[22] = molecular target: Calcium/calmodulin-dependent protein kinase type 1D (Homo sapiens) (UniProt Q8IU85)
[23] = molecular target: Ribosomal protein S6 kinase alpha-5 (Homo sapiens) (UniProt O75582)
[24] = molecular target: Fibroblast growth factor receptor 4 (Homo sapiens) (UniProt P22455)
[25] = molecular target: Interleukin-1 receptor-associated kinase 3 (Homo sapiens) (UniProt Q9Y616)
[26] = molecular target: Mitogen-activated protein kinase kinase kinase kinase 4 (Homo sapiens) (UniProt O95819)
[27] = molecular target: Mitogen-activated protein kinase kinase kinase 15 (Homo sapiens) (UniProt Q6ZN16)
[28] = molecular target: Mitogen-activated protein kinase 9 (Homo sapiens) (UniProt P45984)
[29] = molecular target: Serine/threonine-protein kinase SIK2 (Homo sapiens) (UniProt Q9H0K1)
[30] = molecular target: Serine/threonine-protein kinase Sgk1 (Homo sapiens) (UniProt O00141)
[31] = molecular target: Aurora kinase C (Homo sapiens) (UniProt Q9UQB9)
[32] = molecular target: cAMP-dependent protein kinase catalytic subunit alpha (Homo sapiens) (UniProt P17612)
[33] = molecular target: Serine/threonine-protein kinase Sgk2 (Homo sapiens) (UniProt Q9HBY8)
[34] = molecular target: Serine/threonine-protein kinase mTOR (Homo sapiens) (UniProt P42345)
[35] = molecular target: Serine/threonine-protein kinase 4 (Homo sapiens) (UniProt Q13043)
[36] = molecular target: Misshapen-like kinase 1 (Homo sapiens) (UniProt Q8N4C8)
[37] = molecular target: Casein kinase I isoform delta (Homo sapiens) (UniProt P48730)
[38] = molecular target: AP2-associated protein kinase 1 (Homo sapiens) (UniProt Q2M2I8)
[39] = molecular target: Serine/threonine-protein kinase TBK1 (Homo sapiens) (UniProt Q9UHD2)
[40] = molecular target: Macrophage colony-stimulating factor 1 receptor (Homo sapiens) (UniProt P07333)
[41] = test system: Mast/stem cell growth factor receptor Kit (Homo sapiens), P10721 [D816V]
[42] = molecular target: Macrophage-stimulating protein receptor (Homo sapiens) (UniProt Q04912)
[43] = molecular target: Glycogen synthase kinase-3 alpha (Homo sapiens) (UniProt P49840)
[44] = molecular target: Phosphatidylinositol 4,5-bisphosphate 3-kinase catalytic subunit delta isoform (Homo sapiens) (UniProt O00329)
[45] = molecular target: Tyrosine-protein kinase ABL1 (Homo sapiens) (UniProt P00519)

Measured: residual activity

Sequence of Macrophage colony-stimulating factor 1 receptor (Homo sapiens) (P07333 whole entry): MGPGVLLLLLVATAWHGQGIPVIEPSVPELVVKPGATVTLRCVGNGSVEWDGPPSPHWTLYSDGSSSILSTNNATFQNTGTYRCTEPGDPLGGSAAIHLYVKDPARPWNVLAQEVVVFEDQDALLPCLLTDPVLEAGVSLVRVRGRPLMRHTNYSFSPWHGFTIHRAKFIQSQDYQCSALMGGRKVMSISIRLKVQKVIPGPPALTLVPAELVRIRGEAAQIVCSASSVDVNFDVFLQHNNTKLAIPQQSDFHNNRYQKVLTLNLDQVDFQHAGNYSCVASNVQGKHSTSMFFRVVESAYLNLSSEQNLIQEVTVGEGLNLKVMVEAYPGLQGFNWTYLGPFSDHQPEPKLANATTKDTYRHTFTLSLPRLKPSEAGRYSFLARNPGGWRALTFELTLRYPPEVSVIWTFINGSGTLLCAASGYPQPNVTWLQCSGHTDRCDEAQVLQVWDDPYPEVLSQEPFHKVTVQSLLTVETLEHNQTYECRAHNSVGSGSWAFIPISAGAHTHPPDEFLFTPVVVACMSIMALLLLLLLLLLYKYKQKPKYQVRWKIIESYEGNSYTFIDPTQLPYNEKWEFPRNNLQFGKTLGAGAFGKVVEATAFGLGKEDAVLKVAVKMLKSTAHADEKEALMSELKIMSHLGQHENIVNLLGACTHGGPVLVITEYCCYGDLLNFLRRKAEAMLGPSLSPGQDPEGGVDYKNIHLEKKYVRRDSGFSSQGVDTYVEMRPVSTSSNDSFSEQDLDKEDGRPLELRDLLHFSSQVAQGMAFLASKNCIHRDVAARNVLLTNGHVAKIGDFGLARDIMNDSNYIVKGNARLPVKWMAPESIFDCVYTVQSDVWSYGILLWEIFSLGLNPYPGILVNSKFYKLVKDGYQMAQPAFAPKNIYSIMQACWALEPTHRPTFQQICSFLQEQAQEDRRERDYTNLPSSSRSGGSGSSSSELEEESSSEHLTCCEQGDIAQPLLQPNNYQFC
Sequence of Focal adhesion kinase 1 (Homo sapiens) (Q05397 2-1052 limits assumed): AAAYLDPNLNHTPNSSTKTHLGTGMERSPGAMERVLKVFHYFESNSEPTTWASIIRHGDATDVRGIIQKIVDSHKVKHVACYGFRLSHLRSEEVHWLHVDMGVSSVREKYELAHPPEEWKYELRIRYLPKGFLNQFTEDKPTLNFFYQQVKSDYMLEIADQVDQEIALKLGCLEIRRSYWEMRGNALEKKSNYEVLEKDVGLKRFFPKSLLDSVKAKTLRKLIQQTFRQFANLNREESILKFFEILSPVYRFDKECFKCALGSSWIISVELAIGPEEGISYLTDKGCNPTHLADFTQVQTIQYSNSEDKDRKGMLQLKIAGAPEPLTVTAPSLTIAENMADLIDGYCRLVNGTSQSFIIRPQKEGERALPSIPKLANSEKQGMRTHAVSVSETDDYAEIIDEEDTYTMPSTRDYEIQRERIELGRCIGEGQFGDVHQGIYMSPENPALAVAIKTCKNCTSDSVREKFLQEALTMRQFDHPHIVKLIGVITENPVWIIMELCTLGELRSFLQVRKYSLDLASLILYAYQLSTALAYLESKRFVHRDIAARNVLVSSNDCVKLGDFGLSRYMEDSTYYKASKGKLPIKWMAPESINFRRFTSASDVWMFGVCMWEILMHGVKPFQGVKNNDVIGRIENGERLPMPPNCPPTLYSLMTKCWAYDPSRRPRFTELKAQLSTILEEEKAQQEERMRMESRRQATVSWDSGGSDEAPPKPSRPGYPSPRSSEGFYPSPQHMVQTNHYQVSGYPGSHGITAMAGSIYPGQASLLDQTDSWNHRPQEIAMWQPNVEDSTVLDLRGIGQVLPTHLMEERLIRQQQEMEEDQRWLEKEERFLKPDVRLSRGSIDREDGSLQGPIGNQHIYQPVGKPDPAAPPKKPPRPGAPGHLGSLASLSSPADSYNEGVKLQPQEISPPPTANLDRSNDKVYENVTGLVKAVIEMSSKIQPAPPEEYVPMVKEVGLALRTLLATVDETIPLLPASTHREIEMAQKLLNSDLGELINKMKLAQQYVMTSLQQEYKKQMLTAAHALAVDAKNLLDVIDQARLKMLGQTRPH
Sequence of Rhodopsin kinase GRK1 (Homo sapiens) (Q15835 whole entry): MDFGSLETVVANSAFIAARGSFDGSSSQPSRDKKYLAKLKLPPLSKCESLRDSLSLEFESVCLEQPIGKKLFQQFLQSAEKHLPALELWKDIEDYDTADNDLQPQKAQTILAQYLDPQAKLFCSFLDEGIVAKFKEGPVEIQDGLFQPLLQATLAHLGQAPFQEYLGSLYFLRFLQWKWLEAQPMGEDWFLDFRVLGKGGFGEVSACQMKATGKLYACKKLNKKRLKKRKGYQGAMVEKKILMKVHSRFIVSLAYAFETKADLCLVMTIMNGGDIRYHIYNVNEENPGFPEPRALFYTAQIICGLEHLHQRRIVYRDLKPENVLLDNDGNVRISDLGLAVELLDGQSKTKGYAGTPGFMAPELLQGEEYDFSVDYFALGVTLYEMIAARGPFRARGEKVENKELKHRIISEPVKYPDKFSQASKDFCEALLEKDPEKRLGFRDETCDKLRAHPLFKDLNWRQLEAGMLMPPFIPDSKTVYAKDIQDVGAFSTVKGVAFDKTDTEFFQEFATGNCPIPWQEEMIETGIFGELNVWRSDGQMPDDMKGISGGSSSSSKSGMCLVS
Sequence of Calcium/calmodulin-dependent protein kinase type 1D (Homo sapiens) (Q8IU85 whole entry, looked up): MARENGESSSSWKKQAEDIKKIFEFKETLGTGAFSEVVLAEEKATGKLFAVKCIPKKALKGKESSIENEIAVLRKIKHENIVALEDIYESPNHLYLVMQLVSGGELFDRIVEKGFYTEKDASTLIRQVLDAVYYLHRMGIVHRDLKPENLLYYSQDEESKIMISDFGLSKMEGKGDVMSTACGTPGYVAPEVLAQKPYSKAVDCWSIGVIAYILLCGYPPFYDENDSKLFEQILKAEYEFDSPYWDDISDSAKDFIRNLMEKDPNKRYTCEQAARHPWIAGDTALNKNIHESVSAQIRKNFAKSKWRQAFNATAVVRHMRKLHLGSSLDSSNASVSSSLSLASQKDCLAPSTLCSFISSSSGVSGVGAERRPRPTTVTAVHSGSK
Sequence of Ephrin type-B receptor 1 (Homo sapiens) (P54762 whole entry): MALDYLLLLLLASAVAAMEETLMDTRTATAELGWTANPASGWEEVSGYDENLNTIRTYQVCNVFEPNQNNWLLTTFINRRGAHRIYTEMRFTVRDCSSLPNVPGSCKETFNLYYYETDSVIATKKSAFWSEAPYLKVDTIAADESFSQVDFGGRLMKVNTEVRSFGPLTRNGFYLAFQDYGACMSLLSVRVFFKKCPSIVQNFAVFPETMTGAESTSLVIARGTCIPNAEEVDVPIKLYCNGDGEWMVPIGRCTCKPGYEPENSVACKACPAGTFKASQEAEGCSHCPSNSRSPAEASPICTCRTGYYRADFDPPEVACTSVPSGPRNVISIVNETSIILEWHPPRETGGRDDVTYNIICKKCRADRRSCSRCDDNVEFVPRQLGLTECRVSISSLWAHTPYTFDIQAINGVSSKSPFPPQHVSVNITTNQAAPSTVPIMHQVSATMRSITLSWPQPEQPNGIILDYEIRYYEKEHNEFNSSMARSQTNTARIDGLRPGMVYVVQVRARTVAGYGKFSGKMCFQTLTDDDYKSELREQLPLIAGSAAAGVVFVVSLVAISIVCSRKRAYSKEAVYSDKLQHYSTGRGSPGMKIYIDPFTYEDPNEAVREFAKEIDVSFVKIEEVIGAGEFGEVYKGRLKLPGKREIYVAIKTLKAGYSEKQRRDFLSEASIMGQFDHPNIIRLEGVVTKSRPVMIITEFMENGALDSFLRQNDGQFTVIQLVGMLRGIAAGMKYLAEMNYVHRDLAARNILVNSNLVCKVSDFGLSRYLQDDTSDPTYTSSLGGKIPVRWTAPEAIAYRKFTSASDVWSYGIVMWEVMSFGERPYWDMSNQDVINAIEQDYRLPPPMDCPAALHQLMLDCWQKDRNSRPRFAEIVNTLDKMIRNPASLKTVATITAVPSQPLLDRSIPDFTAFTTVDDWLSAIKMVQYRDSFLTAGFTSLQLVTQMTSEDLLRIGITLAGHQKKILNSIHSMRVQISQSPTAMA
Sequence of Testis-specific serine/threonine-protein kinase 1 (Homo sapiens) (Q9BXA7 whole entry): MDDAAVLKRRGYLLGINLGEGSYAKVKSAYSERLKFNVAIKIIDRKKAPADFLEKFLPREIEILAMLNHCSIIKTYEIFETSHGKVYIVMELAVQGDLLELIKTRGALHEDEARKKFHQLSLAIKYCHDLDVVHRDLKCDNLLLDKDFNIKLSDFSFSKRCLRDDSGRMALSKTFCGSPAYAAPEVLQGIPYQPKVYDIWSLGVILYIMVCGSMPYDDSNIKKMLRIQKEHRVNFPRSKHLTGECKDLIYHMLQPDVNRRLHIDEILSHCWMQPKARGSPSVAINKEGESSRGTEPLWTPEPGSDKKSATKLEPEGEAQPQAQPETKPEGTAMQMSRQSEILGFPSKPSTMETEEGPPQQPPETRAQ
Sequence of Testis-specific serine/threonine-protein kinase 3 (Homo sapiens) (Q96PN8 whole entry): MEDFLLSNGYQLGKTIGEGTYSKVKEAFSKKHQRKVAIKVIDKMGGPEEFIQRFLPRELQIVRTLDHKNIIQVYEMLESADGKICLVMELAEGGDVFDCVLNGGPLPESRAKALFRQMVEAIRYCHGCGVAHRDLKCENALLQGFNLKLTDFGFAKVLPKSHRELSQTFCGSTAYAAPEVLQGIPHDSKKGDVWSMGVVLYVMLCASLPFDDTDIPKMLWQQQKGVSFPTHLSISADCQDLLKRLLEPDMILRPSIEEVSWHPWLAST
Sequence of Aurora kinase C (Homo sapiens) (Q9UQB9 whole entry): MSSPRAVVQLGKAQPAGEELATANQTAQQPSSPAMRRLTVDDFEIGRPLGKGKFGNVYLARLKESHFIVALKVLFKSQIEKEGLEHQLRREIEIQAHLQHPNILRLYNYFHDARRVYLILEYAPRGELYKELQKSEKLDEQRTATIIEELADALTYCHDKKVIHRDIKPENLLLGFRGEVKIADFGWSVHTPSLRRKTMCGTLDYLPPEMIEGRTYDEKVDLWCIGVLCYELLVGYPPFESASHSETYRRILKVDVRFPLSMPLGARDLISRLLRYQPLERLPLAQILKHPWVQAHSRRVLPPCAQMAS

CCS(=O)(=O)c1cc2cc(C[C@](O)(CC(C)(C)c3ccc(F)cc3C(N)=O)C(F)(F)F)[nH]c2cn1
inactive: [1] 81% | [2] 100% | [3] 90% | [4] 93% | [5] 83% | [6] 96% | [7] 86% | [8] 88% | [9] 86% | [10] 100% | [11] 83% | [12] 100% | [13] 100% | [14] 100% | [15] 100% | [16] 100% | [17] 97% | [18] 92% | [19] 94% | [20] 98% | [21] 89% | [22] 100% | [23] 100% | [24] 72% | [25] 96% | [26] 92% | [27] 97% | [28] 100% | [29] 100% | [30] 100% | [31] 91% | [32] 100% | [33] 90% | [34] 77% | [35] 100% | [36] 89% | [37] 96% | [38] 100% | [39] 93% | [40] 100% | [41] 100% | [42] 100% | [43] 100% | [44] 89% | [45] 100%

CCS(=O)(=O)c1cc2cc(C[C@@](O)(CC(C)(C)c3ccc(F)cc3C(N)=O)C(F)(F)F)[nH]c2cn1
inactive: [1] 100% | [2] 100% | [3] 88% | [4] 95% | [5] 90% | [6] 97% | [7] 92% | [8] 59% | [9] 72% | [10] 100% | [11] 69% | [12] 100% | [13] 100% | [14] 100% | [15] 100% | [16] 96% | [17] 100% | [18] 90% | [19] 96% | [20] 100% | [21] 73% | [22] 89% | [23] 69% | [24] 100% | [25] 67% | [26] 85% | [27] 57% | [28] 84% | [29] 100% | [30] 79% | [31] 81% | [32] 100% | [33] 57% | [34] 100% | [35] 100% | [36] 79% | [37] 100% | [38] 100% | [39] 87% | [40] 100% | [41] 90% | [42] 85% | [43] 100% | [44] 90% | [45] 71%
